# Measurements: patent publication US11266149B2, “Herbicidal compositions” (University of Durham, priority 2016, dated 2022)
# “Also recorded” adds a separate entry of the source.
# Assays:
# [1] = tested on: phenylalanine ammonia-lyase (PAL); conditions: Buckwheat PAL inhibition; cited from earlier work
# Arabidopsis plants = assay: Spray treatment of Arabidopsis plants; format: in vivo, Arabidopsis thaliana
# Protocol: (§1) Plant material—Arabidopsis thaliana ecotype Columbia-0 was used in all experiments that utilised Arabidopsis. For spray experiments, many seeds were sown in compost inside pots with a base area of […]. The plants were treated with herbicide formulations by spraying when they were 2-3 weeks old. To obtain leaf discs, individual plants were sown in single pots and grown for 4 weeks. Leaf discs of 1-cm diameter were cored from fully expanded leaves. Glyphosate-resistant and susceptible biotypes of Conyza sumatrensis [(Retz.) E. Walker] were obtained from an olive grove in Italy. For spraying experiments, many plants were sown in compost inside pots with a base area of 81 cm^2. Plants were spray-treated at 2 weeks from sowing. For leaf disc experiments, individual plants were sown in single pots and grown for 8 weeks before coring 1-cm diameter leaf discs from fully expanded leaves. All plants were grown in a 16 h photoperiod (˜200 μmol·m^−2·s^−1) at 22° C.
# (§2) Chemicals—Shikimic acid and pure glyphosate were purchased from Sigma-Aldrich (Dorset, UK). These were used to make stock solutions in water that were adjusted to pH 5.5 and used for treatment of leaf discs. Shikimate-3-phosphate trisodium salt was purchased from Santa Cruz Biotechnology (Dallas, Tex.). Gallup® 360 (Barclay Chemicals Manufacturing Ltd, Dublin, Ireland), a formulation of 360 g/L glyphosate, was used for spray treatments after diluting down to the desired rate.
# (§3) Treatments—Leaf discs of 1 cm-diameter were cored from plants and floated on 10 mL solutions inside Petri dishes. A minimum of 5 replicate discs per treatment arising from 5 independent plants were used. For dark incubation, the Petri dishes were wrapped in aluminium foil to exclude light. Leaf discs were harvested at time-points indicated in the Figure legends for photographing or for shikimic acid analysis. For spray treatments, glyphosate was formulated in 3 mL with enough Gallup® to achieve the desired rate on a surface area of 36 cm^2 or 81 cm^2 pots. A commercial herbicide enhancer oil Activator-G™ (Agrigem Ltd., Market Rasen, UK) was added as an adjuvant to spray at a final rate of 1 L/ha. Shikimate-3-phosphate was added to a final concentration of 500 μM in the 3 mL. Control plants were sprayed with water containing Activator-G only.
# Next we turned our attention to the inexplicable retardation of shikimate conversion to shikimate-3-phosphate during exposure to glyphosate. We proposed the hypothesis that shikimate-3-phosphate is a critical component required for glyphosate to be phytotoxic and that glyphosate-susceptible plants attempt to block its formation in order to avoid death. We sprayed 2-week-old Arabidopsis plants with a formulation of glyphosate at different rates with or without shikimate-3-phosphate as an additive. […]
# [2] = tested on: Conyza sumatrensis leaf discs; assay: Leaf discs floated on glyphosate solutions, phytotoxicity / cell death; format: cell-based
# Protocol: as §1, §2, §3
# While studying programmed cell death, we noted that light is a crucial factor in the activation of plant cell death (Chivasa et al., 2009; Wang et al., 2012; Smith et al., 2014). We wondered if deprivation of light could also block glyphosate toxicity. To investigate this, we used a previously published in vitro assay (Teaster and Hoagland, 2013) in which leaf discs are floated over glyphosate solutions of desired concentration.
# Galium mollugo cells = conditions: glyphosate-treated Galium mollugo cells; cited from earlier work
# Arabidopsis leaf discs = assay: Shikimic acid accumulation in Arabidopsis leaf discs; format: cell-based, Arabidopsis thaliana; conditions: 25 μM glyphosate
# Protocol: as §3, with “Control plants were sprayed with water containing Activator-G only.” left out
# Shikimic acid analysis—Leaf discs floating on treatment solutions were blotted dry, added to microfuge tubes containing 125 μL of 0.25 N HCL before snap-freezing in liquid nitrogen and storing at −20° C. […] The shikimic acid in the samples was determined by spectrophotometric measurements at 382 nm against a reagent only blank and using a calibration curve of shikimic acid standards. The shikimic acid accumulating in response to glyphosate treatment was calculated as the difference between the reading from mock-treated control leaf discs and the glyphosate-treated discs. Values were expressed as μg/mL shikimic acid. […]
# [3] = tested on: Arabidopsis shikimate pathway genes; assay: Quantitative real-time PCR of shikimate pathway genes in leaf discs; format: cell-based, Arabidopsis thaliana
# Protocol: Gene expression analysis—RNA was extracted from leaf tissues using the Spectrum Plant Total RNA kit (Sigma-Aldrich) according to the manufacturer's instructions. Each sample was a pool of five 1 cm-diameter leaf discs arising from 5 independent plants. First strand cDNA synthesis was performed using 4 μg total RNA and oligod(T) using Promega (Southampton, UK) GoScript Reverse Transcription System. Quantitative real-time polymerase chain reaction was performed using SensiFast reagent kit (Bioline, London, UK) on a Rotorgene-Q (Qiagen, Crawley, UK). Each 20 μL reaction contained 10 μL SensiFast reagent, 5 μL cDNA template that had been diluted 1:8, and 8 pmoles each primer (forward and reverse primers). Cycling conditions used were as follows: denaturation at 95° C. for 2 mins followed by 40 cycles of 95° C. for 10 sec, annealing at 56° C. for 15 sec, and extension at 72° C. for 25 sec. Data analysis was performed using REST2009 (Qiagen, Crawley, UK) using ACTIN2 (At3g18780) and EIF4 (At3g13920) as reference control genes. Triplicate samples per treatment per time-point were analysed in order to calculate a mean and standard deviation.
# Arabidopsis leaf discs were floated on 25 μM glyphosate solutions and incubated in light or total darkness. Samples were harvested at various intervals within 72 h of treatment for quantification of shikimic acid and analysis of gene expression using quantitative real-time PCR. […] All three DAPS genes were differentially regulated, only one of the five putative SK genes responded to glyphosate, both EPSPS genes were responsive, and the chorismate synthase (CS) genes responded as well (FIG. 6). Up-regulation of the shikimate pathway components triggered by blockading flux with glyphosate is a typical metabolic response.
# [4] = 25° C.; cited from earlier work
# [5] = tested on: Glyphosate-resistant (GR) and susceptible (GS) C. sumatrensis plants; assay: Cut shoots placed in glyphosate solution with or without gluconic acid; format: in vivo, Conyza sumatrensis; conditions: 100 μM glyphosate only, ten days (FIG. 8)
# Protocol: Glyphosate-resistant (GR) and susceptible (GS) C. sumatrensis plants were germinated in soil and transferred to solutions of 100 μM glyphosate with or without 5 mM gluconic acid.
# Because the pentose phosphate pathway gene GntK responds to glyphosate, we tested if intermediates in the pathway might also influence glyphosate toxicity (FIG. 8). Glyphosate resistant (GR) and glyphosate susceptible (GS) Conyza sumatrensis were germinated in soil and the shoots cut off at the base of the stem and placed in 2 mL of 100 μM glyphosate with or without gluconic acid at various concentrations. […] Cessation of growth and development of chlorosis are key hallmarks of glyphosate toxicity.
# [6] = tested on: Conyza sumatrensis leaf discs; assay: Shikimic acid accumulation in leaf discs; format: cell-based
# Protocol: as §3
# Shikimic acid analysis—Leaf discs floating on treatment solutions were blotted dry, added to microfuge tubes containing 125 μL of 0.25 N HCL before snap-freezing in liquid nitrogen and storing at −20° C. Samples were thawed at room temperature, vortexed for 5 min, and then incubated at 60° C. for 15 min. Aliquots of 25 μL were withdrawn and mixed with 100 μL of 0.25% (w/v) periodic acid/0.25% m-periodate in fresh microfuge tubes. After 30 min incubation at 37° C., 100 μL of 0.6 N NaOH/0.22 M Na2SO3 were added and the volume made up to 1 mL with distilled water. The shikimic acid in the samples was determined by spectrophotometric measurements at 382 nm against a reagent only blank and using a calibration curve of shikimic acid standards. The shikimic acid accumulating in response to glyphosate treatment was calculated as the difference between the reading from mock-treated control leaf discs and the glyphosate-treated discs. Values were expressed as μg/mL shikimic acid.
# [7] = glyphosate, dark incubation (FIG. 6)
# [8] = glyphosate-treated leaf discs (FIG. 6)
structure (smiles),measurement,setting,value
NO[C@@H](Cc1ccccc1)C(=O)O [L-α-aminooxy-β-phenylpropionic acid],"phenylalanine accumulation, light versus dark",[1],three-fold higher phenylalanine accumulation in light than in the dark
"O=C([O-])C1=C[C@@H](OP(=O)([O-])[O-])[C@@H](O)[C@H](O)C1.[Na+].[Na+].[Na+] [Shikimate-3-phosphate, Shikimate-3-phosphate trisodium salt]",adverse effects on Arabidopsis,"Arabidopsis plants; 500 μM shikimate-3-phosphate on its own, spray (FIG. 7C)",did not have any adverse effects
"O=C(O)C1=C[C@@H](O)[C@@H](O)[C@H](O)C1 [shikimic acid, Shikimic acid]",breaking of glyphosate resistance at lower shikimic acid concentrations,"[2]; with glyphosate, shikimic acid below 1-5 mM, 7 days (FIG. 4B)",unable to
same,shikimic acid concentrations able to break glyphosate resistance,"[2]; with glyphosate, within 7 days of application (FIG. 4B)",1 to 5 mM
same,phytotoxicity of shikimic acid on its own,"[2]; without glyphosate, up to 15 mM",not phytotoxic; also recorded: did not cause any phytotoxicity
"O=C(O)CNCP(=O)(O)O [glyphosate, N-[phosphonomethyl] glycine]",estimated cellular shikimic acid,Galium mollugo cells,20 to 23 mM
same,shikimic acid accumulation,Arabidopsis leaf discs; dark incubation (FIG. 5),suppressed shikimic acid accumulation
same,shikimic acid accumulation,"Arabidopsis leaf discs; incubated in light, within 72 h (FIG. 5)",significant accumulation of shikimic acid
same,phytotoxic effects at much higher glyphosate concentration,"[2]; 1 mM glyphosate, dark incubation, 3 days (FIG. 2C)",still requires light for phytotoxicity; also recorded: dark-incubation suppressed the phytotoxic effects
same,phytotoxic effects of glyphosate on leaf discs,"[2]; incubated in complete darkness, 100 μM glyphosate, 14 days (FIG. 2A)",protected from the phytotoxic effects
same,viability of leaf discs,"[2]; resistant biotype, 100 μM glyphosate on its own (FIG. 4A)",did not affect the viability
same,shikimate accumulation and cell death by biotype,[2]; susceptible and resistant biotypes (FIG. 3),"activates shikimate accumulation and cell death in the susceptible, but not resistant biotype"
same,"time until cell death (chlorosis, browning) easily visible","[2]; susceptible biotype, leaf discs floated on glyphosate",10 to 14 days
same,expression of At2g16790 in the dark,[3]; [7],also stimulated in the dark
same,glyphosate-induced stimulation of other genes in the dark,[3]; [7],dark incubation suppressed glyphosate-induced stimulation
same,"expression of DAHPS, SK, EPSPS and CS genes","[3]; glyphosate, in light (FIG. 6)",significant changes in the expression
same,change in gene expression of At2g16790,[3]; [8],over 30 fold
same,change in gene expression of all other genes,[3]; [8],below 6 fold
same,symptoms after foliar application by spraying,"Arabidopsis plants; 2-week-old plants, Gallup 360 formulation (FIG. 7A)",causes chlorosis and then cell death of apical meristems
same,effects on plant growth,"Arabidopsis plants; glyphosate 18 g/ha, spray, 3 weeks (FIG. 7B)",no effects on plant growth
same,effects on Arabidopsis,"Arabidopsis plants; glyphosate 36 g/ha, spray, 3 weeks (FIG. 7B)",very modest effects
same,solubility in water,[4],1.16 % by weight
same,growth and chlorosis of GR plants,[5]; GR plants,have grown with expanded healthy and green leaves; also recorded: remained healthy and green
same,growth and chlorosis of GS plants,[5]; GS plants,"stunted and chlorotic; also recorded: stopped growing and developed chlorosis, which eventually led to tissue death"
same,shikimic acid accumulation in leaf tissues,[6]; continuous dark incubation (FIG. 2B),suppressed shikimic acid accumulation
same,"shikimic acid level, susceptible versus resistant biotype","[6]; glyphosate 25-200 μM, one week (FIG. 3B)",significantly higher levels of shikimic acid than the resistant biotype
same,shikimic acid concentration in leaf tissues,"[6]; light-dark cycle, one week after treatment (FIG. 2B)",massive rise
same,maximum concentration of shikimic acid accumulating,"[6]; susceptible C. sumatrensis, within 3 days of exposure to glyphosate",10 to 15 mM
